Source: patent US8637511B2, “Aminopyrimidines useful as kinase inhibitors” (Vertex Pharmaceuticals Incorporated, priority 2005, dated 2014)
pIC50, pKi: −log10 of the molar value.

What was measured:
FLT-3 = target: T1, FLT-3 (Homo sapiens, UniProt P36888); assay: FLT-3 inhibition assay, radiometric filter-binding; assay type: biochemical
T1 sequence (P36888 27-993): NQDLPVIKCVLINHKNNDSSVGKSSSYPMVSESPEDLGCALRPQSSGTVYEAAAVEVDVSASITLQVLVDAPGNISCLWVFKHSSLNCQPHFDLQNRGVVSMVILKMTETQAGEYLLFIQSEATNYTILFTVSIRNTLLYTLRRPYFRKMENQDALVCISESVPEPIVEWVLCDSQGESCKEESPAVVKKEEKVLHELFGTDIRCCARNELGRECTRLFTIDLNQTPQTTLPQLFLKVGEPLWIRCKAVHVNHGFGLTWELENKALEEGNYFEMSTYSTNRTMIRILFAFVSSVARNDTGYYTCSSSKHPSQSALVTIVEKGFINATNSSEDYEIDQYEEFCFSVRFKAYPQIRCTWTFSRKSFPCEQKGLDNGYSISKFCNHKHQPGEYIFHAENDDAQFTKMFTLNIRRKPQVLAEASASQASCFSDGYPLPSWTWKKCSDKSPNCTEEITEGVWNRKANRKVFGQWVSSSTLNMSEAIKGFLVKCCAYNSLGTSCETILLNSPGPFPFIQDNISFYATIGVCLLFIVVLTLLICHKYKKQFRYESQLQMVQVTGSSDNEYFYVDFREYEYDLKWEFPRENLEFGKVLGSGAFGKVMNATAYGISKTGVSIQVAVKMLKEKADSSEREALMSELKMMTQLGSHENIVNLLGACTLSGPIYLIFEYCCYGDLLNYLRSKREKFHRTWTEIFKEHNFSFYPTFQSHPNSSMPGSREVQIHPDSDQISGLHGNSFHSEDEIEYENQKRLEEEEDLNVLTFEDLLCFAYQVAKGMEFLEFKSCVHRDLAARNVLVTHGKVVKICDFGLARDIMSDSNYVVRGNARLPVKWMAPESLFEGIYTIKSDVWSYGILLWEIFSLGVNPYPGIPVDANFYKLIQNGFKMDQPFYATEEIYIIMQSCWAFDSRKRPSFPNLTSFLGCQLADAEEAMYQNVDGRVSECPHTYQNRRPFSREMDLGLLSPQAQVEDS
Procedure: This assay monitors the 33P incorporation into a substrate poly(Glu, Tyr) 4:1 (pE4Y). […] Final substrate concentrations in the assay were 90 μM ATP and 0.5 mg/ml pE4Y (both from Sigma Chemicals, St. Louis, Mo.). […] Reactions were carried out at room temperature.
Two assay solutions were prepared. Solution 1 contains 100 mM HEPES (pH 7.5), 10 mM MgCl2, 25 mM NaCl, 1 mg/ml pE4Y and […] (containing 0.3 mCi of [γ-33^P]ATP for each reaction). Solution 2 contains 100 mM HEPES (pH 7.5), 10 mM MgCl2, 25 mM NaCl, 2 mM DTT, 0.02% BSA and 3 nM FLT-3. The assay was run on a 96 well plate by mixing 50 μl each of Solution 1 and […] of the compounds of the present invention. The reaction was initiated with Solution 2. […] All of the reaction volume was then transferred to a filter plate and washed with 5% TCA by a Harvester 9600 from TOMTEC (Hamden, Conn.). The amount of ^33P incorporation into pE4y was analyzed by a Packard Top Count Microplate Scintillation Counter (Meriden, Conn.). The data was fitted using Prism software to get an IC50 or Ki.

human Itk kinase = target: T2, human Itk kinase (Homo sapiens, UniProt Q08881); assay: Itk inhibition assay: radioactivity-based assay; assay type: biochemical; conditions: Ki(app)
T2 sequence (Q08881 1-620): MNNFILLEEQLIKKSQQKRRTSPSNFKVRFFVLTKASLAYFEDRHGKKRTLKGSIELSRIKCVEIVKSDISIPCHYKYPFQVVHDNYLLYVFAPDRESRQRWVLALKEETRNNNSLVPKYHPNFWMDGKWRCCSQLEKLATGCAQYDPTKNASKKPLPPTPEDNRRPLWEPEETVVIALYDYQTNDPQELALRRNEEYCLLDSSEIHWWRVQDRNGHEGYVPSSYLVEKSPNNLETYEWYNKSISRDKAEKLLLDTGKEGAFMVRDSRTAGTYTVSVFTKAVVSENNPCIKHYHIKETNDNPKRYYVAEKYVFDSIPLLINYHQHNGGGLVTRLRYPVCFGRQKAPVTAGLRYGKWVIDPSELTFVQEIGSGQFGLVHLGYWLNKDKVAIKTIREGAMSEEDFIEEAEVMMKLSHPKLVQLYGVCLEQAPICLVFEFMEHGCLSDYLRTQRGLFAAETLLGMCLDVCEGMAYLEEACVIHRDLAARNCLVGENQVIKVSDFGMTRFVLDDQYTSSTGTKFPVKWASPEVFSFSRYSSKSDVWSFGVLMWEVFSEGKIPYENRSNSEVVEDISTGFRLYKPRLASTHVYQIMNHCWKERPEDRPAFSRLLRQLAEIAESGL
Procedure: The compounds of the present invention were evaluated as inhibitors of human Itk kinase using a radioactivity-based assay. These compounds can also be evaluated using a spectrophotometric or alphascreen assay.
Assays were carried out in a mixture of 20 mM MOPS (pH 7.0), 10 mM MgCl2, 0.1% BSA and 1 mM DTT. Final substrate concentrations in the assay were 7.5 μM [γ-^33P]ATP (400 μCi ^33P ATP/μmol ATP, Amersham Pharmacia Biotech/Sigma Chemicals) and 3 μM peptide (SAM68 protein Δ332-443). Assays were carried out at 25° C. in the presence of 50 nM Itk. An assay stock buffer solution was prepared containing all of the reagents listed above, with the exception of ATP and the test compound of interest. 50 μL of the stock solution was placed in a 96 well plate followed by addition of 2 μL of DMSO stock containing serial dilutions of the test compound (typically starting from a final concentration of 50 μM with 2-fold serial dilutions) in duplicate (final DMSO concentration 2%). The plate was pre-incubated for 10 minutes at 25° C. and the reaction initiated by addition of 50 μL [γ-^33P]ATP (final concentration 7.5 μM).
The reaction was stopped after 10 minutes by the addition of 100 μL 0.2M phosphoric acid+0.01% TWEEN 20. A multiscreen phosphocellulose filter 96-well plate (Millipore, Cat no. MAPHNOB50) was pretreated with 100 μL 0.2M phosphoric acid+0.01% TWEEN 20 prior to the addition of 170 μL of the stopped assay mixture. The plate was washed with 4×200 μL 0.2M phosphoric acid+0.01% TWEEN 20. After drying, 30 μL Optiphase ‘SuperMix’ liquid scintillation cocktail (Perkin Elmer) was added to the well prior to scintillation counting (1450 Microbeta Liquid Scintillation Counter, Wallac).
Ki(app) data were calculated from non-linear regression analysis of the initial rate data using the Prism software package (GraphPad Prism version 3.0cx for Macintosh, GraphPad Software, San Diego Calif., USA).

Colo205 cells = assay: Analysis of cell proliferation and viability; assay type: cell-based; conditions: Homo sapiens, COLO 205; Colo205 cells, incubated for 96 hours; read-out: IC50 value

Structure (SMILES): CCc1cc(Nc2cc(N3CCC3)nc(Sc3ccc(NC(=O)c4ccccc4Cl)cc3)n2)n[nH]1 [Compound 64]
- pKi (FLT-3): 6.82 to 7.30
- pKi (human Itk kinase): ≥ 7.00
- pIC50 (Colo205 cells): 6.00 to 7.30
